Consider three compounds from publication PMC7300657 (EMBO Molecular Medicine, 2020).

Data set [1] relates to cytokine‐induced JAK/STAT signaling. Briefly: Cytokine-stimulated pSTAT inhibition in human leukocyte subpopulations (flow cytometry). It counts as cell-based. The settings on record: human CD4+ T cells, CD8+ T cells, NK cells, monocytes; 1 h preincubation, 15 min cytokine stimulation. As for the experimental part:
Leukocyte preparation and experimental design were largely performed as previously described (McInnes et al, 2019). Whole blood samples from healthy donors (N = 6) were apheresed, and leukocyte‐enriched fractions were transferred to the company Primity Bio (Fremont, CA, USA). […] Cytokines were used at the following concentrations: IL‐2 (4 ng/ml), IL‐3 (12 ng/ml), IL‐4 (350 pg/ml), IL‐6 (1.5 ng/ml), IL‐10 (12 ng/ml), IL‐15 (850 pg/ml), IL‐21 (200 pg/ml), IFN‐γ (100 pg/ml), G‐CSF (5 ng/ml), and GM‐CSF (5 pg/ml). The choice of cytokine concentrations and incubation conditions was optimized in order to ensure consistent signaling in alternate cell types and pSTAT readouts. After stimulation, cells were fixed, permeabilized, and fluorescence‐barcoded, and multicolor flow cytometry was performed as previously described to quantify STAT phosphorylation in gated leukocyte subpopulations (McInnes et al, 2019). For a given case (stimulation, cell type, and pSTAT combination), the IC50 was determined if there was a consistent response to the stimulus as described in the statistical analysis section. The primary pSTAT observed for each stimulus is reported. […]
IC50 values were determined by analyzing the mean fluorescence intensity (MFI) of cytokine‐stimulated samples in the presence of the designated concentration of compound. […]
A general note: A flow cytometer gives signals particle by particle.

The conditions of data set [2]: cited from earlier work.
Data set [3] has as its system SARS‐CoV‐2.
On the set-up of data set [4]: method as in Genovese et al, 2019. The settings on record: RA patients, 10,127 patients-year of exposure, up to 6.9 years; ref Genovese et al, 2019; cited from earlier work.
The test system of data set [5] is primary human liver spheroids. Description: Viability of primary human liver spheroids (intracellular ATP). It counts as cell-based. To be noted: up to concentrations approximately eightfold higher than clinical AUC at 4 mg ([…]), n = 10.
The test system of another data set is IL‐6. To be noted: patients with active RA, inadequate response to methotrexate, P < 0.05.
Data set [6] concerns SARS‐CoV‐2. It counts as cell-based. To be noted: pretreatment 24 h with 400 and 800 nM, MOI 0.1, 48 h after infection, P < 0.05.
The test system of a further data set is JAK2. The settings on record: ref Fridman et al, 2010; cited from earlier work.
The target of another data set is AAK1 (Homo sapiens, UniProt Q2M2I8). Briefly: biochemical.
The target in the next data set is T1, GAK (Homo sapiens, UniProt O14976).
T1 sequence (O14976 1-1311): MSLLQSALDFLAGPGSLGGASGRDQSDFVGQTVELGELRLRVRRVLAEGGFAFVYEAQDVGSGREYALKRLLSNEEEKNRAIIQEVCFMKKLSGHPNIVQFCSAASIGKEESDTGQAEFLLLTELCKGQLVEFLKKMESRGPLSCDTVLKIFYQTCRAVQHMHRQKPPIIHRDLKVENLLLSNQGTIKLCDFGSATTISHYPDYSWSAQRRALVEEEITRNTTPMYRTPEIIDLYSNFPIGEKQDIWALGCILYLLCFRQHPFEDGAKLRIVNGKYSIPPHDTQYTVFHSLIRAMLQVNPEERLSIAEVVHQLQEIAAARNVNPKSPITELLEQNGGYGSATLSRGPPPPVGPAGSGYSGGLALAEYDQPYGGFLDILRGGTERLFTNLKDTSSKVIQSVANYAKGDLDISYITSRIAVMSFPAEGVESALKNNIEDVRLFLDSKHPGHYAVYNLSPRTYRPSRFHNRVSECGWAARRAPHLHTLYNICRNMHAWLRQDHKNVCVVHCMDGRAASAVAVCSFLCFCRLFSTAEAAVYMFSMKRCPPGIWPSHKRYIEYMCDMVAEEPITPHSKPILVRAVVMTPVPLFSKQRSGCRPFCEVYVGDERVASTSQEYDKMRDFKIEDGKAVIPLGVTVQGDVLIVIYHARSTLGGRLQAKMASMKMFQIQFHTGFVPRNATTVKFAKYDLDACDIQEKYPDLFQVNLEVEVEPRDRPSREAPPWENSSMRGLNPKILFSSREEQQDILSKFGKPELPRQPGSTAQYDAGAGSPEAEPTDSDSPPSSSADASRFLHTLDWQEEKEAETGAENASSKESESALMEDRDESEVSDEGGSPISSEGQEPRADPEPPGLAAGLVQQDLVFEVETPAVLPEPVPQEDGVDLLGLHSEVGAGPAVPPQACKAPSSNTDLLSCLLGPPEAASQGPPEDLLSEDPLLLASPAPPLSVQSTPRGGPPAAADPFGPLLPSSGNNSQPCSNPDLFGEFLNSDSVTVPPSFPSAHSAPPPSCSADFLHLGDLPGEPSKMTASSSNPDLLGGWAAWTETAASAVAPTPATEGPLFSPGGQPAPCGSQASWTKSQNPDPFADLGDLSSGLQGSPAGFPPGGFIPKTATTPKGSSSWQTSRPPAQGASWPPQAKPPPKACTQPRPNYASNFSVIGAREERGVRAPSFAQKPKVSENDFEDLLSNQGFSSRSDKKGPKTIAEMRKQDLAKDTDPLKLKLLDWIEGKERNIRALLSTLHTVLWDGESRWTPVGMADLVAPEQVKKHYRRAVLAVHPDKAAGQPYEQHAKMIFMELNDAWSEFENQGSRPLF
Description: biochemical. Type of data set: binding.

The next data set deals with BIKE (Homo sapiens, UniProt Q9NSY1). Briefly: biochemical. It counts as binding.
Another data set deals with STK16 (Homo sapiens, UniProt O75716). Description: biochemical. Type of data set: binding.

Where two headings read alike, the source gives them in different places.

STK16, sequence (O75716 whole entry): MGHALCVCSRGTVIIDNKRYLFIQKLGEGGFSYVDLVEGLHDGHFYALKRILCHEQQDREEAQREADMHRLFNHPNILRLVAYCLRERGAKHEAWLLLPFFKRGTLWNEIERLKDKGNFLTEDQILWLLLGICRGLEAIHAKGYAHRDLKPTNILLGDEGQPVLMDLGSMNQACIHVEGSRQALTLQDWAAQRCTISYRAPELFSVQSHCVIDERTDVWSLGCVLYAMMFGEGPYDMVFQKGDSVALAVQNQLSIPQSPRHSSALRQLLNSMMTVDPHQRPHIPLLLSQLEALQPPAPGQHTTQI
BIKE, sequence (Q9NSY1 whole entry): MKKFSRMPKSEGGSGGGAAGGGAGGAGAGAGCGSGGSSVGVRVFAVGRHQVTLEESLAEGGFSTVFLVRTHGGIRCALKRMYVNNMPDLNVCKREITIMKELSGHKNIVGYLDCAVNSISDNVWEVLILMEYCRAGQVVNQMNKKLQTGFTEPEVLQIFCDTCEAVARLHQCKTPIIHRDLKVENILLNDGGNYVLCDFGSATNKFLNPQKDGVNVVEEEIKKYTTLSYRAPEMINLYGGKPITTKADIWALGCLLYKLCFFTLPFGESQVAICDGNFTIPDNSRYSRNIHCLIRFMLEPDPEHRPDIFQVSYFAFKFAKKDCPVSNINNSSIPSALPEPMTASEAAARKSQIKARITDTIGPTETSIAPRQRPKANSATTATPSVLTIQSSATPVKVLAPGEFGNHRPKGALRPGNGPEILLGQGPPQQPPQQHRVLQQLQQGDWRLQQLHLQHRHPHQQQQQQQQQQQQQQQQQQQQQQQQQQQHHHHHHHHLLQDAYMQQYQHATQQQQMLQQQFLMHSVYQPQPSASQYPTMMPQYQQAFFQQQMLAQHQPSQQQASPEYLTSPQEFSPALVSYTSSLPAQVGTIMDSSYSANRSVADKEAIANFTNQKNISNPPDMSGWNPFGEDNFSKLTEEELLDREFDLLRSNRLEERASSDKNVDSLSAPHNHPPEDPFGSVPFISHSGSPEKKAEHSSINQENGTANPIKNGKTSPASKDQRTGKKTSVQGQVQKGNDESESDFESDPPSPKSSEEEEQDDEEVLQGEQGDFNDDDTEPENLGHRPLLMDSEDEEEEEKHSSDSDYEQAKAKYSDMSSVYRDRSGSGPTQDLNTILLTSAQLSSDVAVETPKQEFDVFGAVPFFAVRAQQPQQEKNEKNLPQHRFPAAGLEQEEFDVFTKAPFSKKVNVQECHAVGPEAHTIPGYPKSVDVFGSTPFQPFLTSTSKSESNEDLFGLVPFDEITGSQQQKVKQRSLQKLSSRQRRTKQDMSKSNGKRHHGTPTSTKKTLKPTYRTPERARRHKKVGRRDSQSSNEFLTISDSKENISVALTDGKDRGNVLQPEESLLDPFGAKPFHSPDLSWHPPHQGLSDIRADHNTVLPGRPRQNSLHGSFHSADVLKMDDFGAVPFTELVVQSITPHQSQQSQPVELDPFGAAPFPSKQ
AAK1, sequence (Q2M2I8 whole entry): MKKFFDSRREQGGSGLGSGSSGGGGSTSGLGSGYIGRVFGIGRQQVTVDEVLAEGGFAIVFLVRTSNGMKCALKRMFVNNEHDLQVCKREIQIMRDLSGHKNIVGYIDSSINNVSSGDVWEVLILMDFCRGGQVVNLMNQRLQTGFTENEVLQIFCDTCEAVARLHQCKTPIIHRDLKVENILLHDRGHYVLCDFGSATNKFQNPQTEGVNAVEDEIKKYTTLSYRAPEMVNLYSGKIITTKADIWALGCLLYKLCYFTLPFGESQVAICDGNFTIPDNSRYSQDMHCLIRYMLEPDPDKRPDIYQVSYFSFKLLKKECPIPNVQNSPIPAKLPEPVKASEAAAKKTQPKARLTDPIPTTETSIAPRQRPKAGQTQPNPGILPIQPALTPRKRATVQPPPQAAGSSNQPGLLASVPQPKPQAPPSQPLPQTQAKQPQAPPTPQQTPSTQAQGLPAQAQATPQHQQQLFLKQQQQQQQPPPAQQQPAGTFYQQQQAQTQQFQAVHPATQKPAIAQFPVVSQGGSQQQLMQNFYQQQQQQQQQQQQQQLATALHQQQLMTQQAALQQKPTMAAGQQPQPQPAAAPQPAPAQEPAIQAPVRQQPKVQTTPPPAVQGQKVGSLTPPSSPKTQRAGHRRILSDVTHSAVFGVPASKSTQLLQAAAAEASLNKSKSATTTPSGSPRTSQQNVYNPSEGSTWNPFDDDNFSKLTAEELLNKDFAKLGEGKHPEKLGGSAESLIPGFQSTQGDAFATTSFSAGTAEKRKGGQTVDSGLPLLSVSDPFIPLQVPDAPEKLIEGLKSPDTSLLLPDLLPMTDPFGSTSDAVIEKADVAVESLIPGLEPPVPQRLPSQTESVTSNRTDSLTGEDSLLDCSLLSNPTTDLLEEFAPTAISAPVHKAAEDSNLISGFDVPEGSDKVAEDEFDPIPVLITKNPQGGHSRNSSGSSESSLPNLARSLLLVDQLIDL

On to `CCS(=O)(=O)N1CC(CC#N)(n2cc(-c3ncnc4[nH]ccc34)cn2)C1` [Baricitinib], for which the “signaling of cytokines implicated in COVID-19 infection (IL-2, IL-6, IL-10, IFN-γ, G-CSF), pSTAT inhibition” value in data set [1] is listed as “inhibited signaling”. In addition, in data set [2] (RA patient sera, baricitinib 2 mg, ref data on file), the “unbound fraction of free bioavailable drug, AUC” value is 326 nM. For the same compound, the half-life entry in data set [2] (RA patients, ref Eli Lilly and Company, 2019) is “approximately 12 h”. Further, the main clearance mechanism result in data set [2] (ref Eli Lilly and Company, 2019) is listed as “renal elimination”. Further, the “clinical outcome of case series” value with SARS‐CoV‐2 [3] (4 mg (Patients A, C, D) or 2 mg (Patient B) once daily oral, 10-12 days) is “improved lung function, resolution of their illness, and reductions in viral load, plasma IL‐6, ferritin, and CRP levels”. Also, the tolerability entry in the data set on SARS‐CoV‐2 [3] (four patients, 2 or 4 mg once daily oral, 10-12 days) is reported as “well‐tolerated”. Further, the liver aminotransferases entry in the data set on SARS‐CoV‐2 [3] (four patients, during baricitinib treatment) is listed as “Transient increases”. Moreover, the “time to improvement of liver enzyme elevations” value with SARS‐CoV‐2 [3] (without interrupting baricitinib treatment) is given as ≤ 72 h. Besides, the “incidence rate of serious infection” value in data set [4] was 2.8 /100 patient‐years. Besides, the “liver cell injury / spheroid viability” value in [5] is on record as “did not result in liver cell injury”. Moreover, the “change from baseline in plasma IL-6 at week 12” value with IL‐6 was “significant reduction”. Moreover, in the data set on SARS‐CoV‐2 [6], the “reduction of viral load” value is listed as 30–40%. Also, the “binding affinity for JAK2” value with JAK2 is 5.7 nM.

For the compound `NC(=O)Nc1cc(-c2cccc(F)c2)sc1C(=O)N[C@H]1CCCNC1` [AZD7762], the Kd on AAK1 was determined as 0.0029 µM; at GAK (read-out: GAK Kd), 0.0014 µM; on BIKE, 0.013 µM; on STK16 it was 1.9 µM.

For the compound `CC[C@@H]1CN(C(=O)NCC(F)(F)F)C[C@@H]1c1cnc2cnc3[nH]ccc3n12` [Upadacitinib], the Kd was found to be 2.2 µM at GAK, 11 µM at BIKE and 9.3 µM on STK16.

In general, Kd refers to the equilibrium constant for the complex coming apart.
